Data as given in US12503444B2, “Compound containing benzene ring and application thereof” (WUHAN LL SCIENCE AND TECHNOLOGY DEVELOPMENT CO., LTD., priority 2019, dated 2025).
pIC50: −log10 of the molar value. Read-outs that look alike come from different tables or passages of the source.

How the values were obtained:
[1] = In vitro metabolic stability, liver microsome incubation (guinea pig); format: in vitro ADME; conditions: guinea pig, liver microsomes; 1 mg/mL liver microsome protein, 37° C.; read-out: T1/2 in guinea pig liver microsome min
Method: (§1) The in vitro metabolic stability of the compounds disclosed herein was determined through incubation of liver microsomes of various species. A proper amount of test compound was added into a liver microsome reaction system (1 mg/mL liver microsome protein, 25 U/mL glucose-6 phosphate dehydrogenase, 1 mM NADP, 6 mM D-glucose 6-phosphate and 5 mM MgCl2), and then the mixture was incubated in a water bath kettle at 37° C. to start the reaction. At each time point, 100 μL of the reaction system was added into a centrifuge tube containing 400 μL of internal standard working solution (containing a 200 ng/mL solution of dexamethasone, diclofenac, tolbutamide and labetalol in acetonitrile) precooled at 0° C. so as to stop the reaction, and the mixture was then centrifuged at 10,000 g for 10 min at 4° C. The supernatant was collected for LC-MS assay so as to obtain the values of in vitro metabolic half-life of the test compounds in liver microsomes of various species.

[2] = biological target: T1, hP2X4 (human purinergic P2X receptor subtype 4) (Homo sapiens, UniProt Q99571); assay: FLIPR assay of intracellular calcium increase induced by activation of hP2X4 expressed in HEK293 cells (agonist BZ-ATP 2.5 μM); format: cell-based; conditions: HEK293 cells stably expressing hP2X4, FLIPR, read-out: P2X4 IC50
T1 sequence (Q99571 1-404 isoform Q99571-2): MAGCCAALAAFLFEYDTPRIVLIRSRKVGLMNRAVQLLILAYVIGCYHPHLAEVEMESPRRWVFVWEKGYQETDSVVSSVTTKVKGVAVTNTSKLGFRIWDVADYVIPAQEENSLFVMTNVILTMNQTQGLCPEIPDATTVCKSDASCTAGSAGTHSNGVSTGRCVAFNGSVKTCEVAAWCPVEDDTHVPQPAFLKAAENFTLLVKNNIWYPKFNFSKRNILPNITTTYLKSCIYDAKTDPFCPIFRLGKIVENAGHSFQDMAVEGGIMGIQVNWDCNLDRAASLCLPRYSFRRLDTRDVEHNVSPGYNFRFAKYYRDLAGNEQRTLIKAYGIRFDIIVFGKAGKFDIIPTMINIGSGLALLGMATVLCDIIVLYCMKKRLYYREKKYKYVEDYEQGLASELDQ
Procedure, shortened: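 Inhibition of the calcium signal was measured by FLIPR after a 2.5 μM final BZ-ATP challenge, with readings every second over 2 min. Stable hP2X4-HEK293 cells were dye-loaded (Calcium 6, 37° C, 1.5 h) and equilibrated with test compound for 30 min at room temperature beforehand.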

[3] = In vitro metabolic stability, liver microsome incubation (rat); format: in vitro ADME; conditions: rat, 1 mg/mL liver microsome protein, 37° C., read-out: T1/2 in rat liver microsome min
Method: as §1

[4] = In vitro metabolic stability, liver microsome incubation (human); format: in vitro ADME; conditions: human, liver microsomes, 1 mg/mL liver microsome protein, 37° C., read-out: T1/2 in human liver microsome min
Method: as §1

[5] = In vitro cytotoxicity assay in HepG2 cells, CCK-8 method; conditions: human
Method: In vitro cytotoxicity assay for the compounds disclosed herein was performed in HepG2 cells using the CCK-8 method. HepG2 cells (Beina Bio) in the logarithmic growth phase were collected, the concentration of cell suspension was adjusted, and then the cells were plated on a 96-well cell culture plate at 50,000 cells/well. The cells were then incubated overnight in a cell incubator (5%/humidity, 37° C.), and after 80-90% cell confluence was achieved, test compounds or vehicle (DMSO) at various concentration gradients were added after medium change. The resulting mixture was incubated in the cell incubator (5% humidity, 37° C.) for 48 h. After the treatment, the medium in the plate was discarded. The plate was washed twice with PBS, added with CCK-8 working solution (Beyotime) at 100 μL per well, and then incubated at 37° C. for 1.5 h away from the light. Absorbance at OD450 nm was measured for each well on a microplate reader, and CC50 value of each compound was analyzed and calculated.

[6] = tested on: Male Dunkin Hartley guinea pigs; assay: Citric acid only cough model in guinea pigs; format: in vivo; conditions: guinea pig, 17.5% citric acid
Method: Male Dunkin Hartley guinea pigs (300-350 g) were placed in an animal atomization box, and then the door of the atomization box was closed while the ultrasonic atomizer (Guangdong Yuehua) was turned on. 17.5% citric acid gas was introduced into the atomization box at a maximum atomization rate (about 2 mL/min) for 20 s, and coughs of the animals within 10 min were continuously observed from the time of the start of atomization. During the 10-min observation, coughs of the animals needed to be counted manually, and the number of coughs were judged according to cough postures of the guinea pigs, such as abdominal twitching, mouth opening, and head inclining downward abruptly. The number of coughs during the first 5 min and that during 10 min were recorded, and the cough latency of the guinea pigs, namely the time from the initiation of citric acid induction to the appearance of the 1st cough, was also recorded.
Cough inhibition rate Vs vehicle represents the percentage of reduction
[formula] in the number of coughs in the administration group compared to the vehicle group upon citric acid challenge; Cough inhibition rate Vs baseline represents the percentage of reduction
[formula] in the number of coughs in the administration group before and after administration.

[7] = 60 mg/kg group, before administration (baseline)

| Compound | pIC50 ([2]; numeric values) | half-life ([3]; liver microsomes) [h] | half-life [4] [h] | CC50 at 48 h [5] [nM] | pIC50 ([2]; class symbols) | also measured |
| --- | --- | --- | --- | --- | --- | --- |
| NS(=O)(=O)c1cc(NC(=O)Cc2ccccc2Cl)cc2n[nH]cc12 [Compound 2, 2-(2-chlorophenyl)-N-(4-sulfamoyl-2H-indazol-6-yl)acetamide] | 8.27 | 0.809 | 2.57 | > 200000 | – | half-life [1]: 3.54 h |
| CCCn1cc2c(S(N)(=O)=O)cc(NC(=O)Cc3ccccc3Cl)cc2n1 [Compound 5-A, 2-(2-chlorophenyl)-N-(2-propyl-4-sulfonylamino-2H-indazol-6-yl)acetamide] | 8.28 | 2.37 | 5.96 | > 200000 | – | half-life [1]: 0.0978 h |
| CC(C)CCn1cc2c(S(N)(=O)=O)cc(NC(=O)Cc3ccccc3Cl)cc2n1 [Compound 8-A, 2-(2-chlorophenyl)-N-(2-isopentyl-4-sulfamoyl-2H-indazol-6-yl)acetamide] | 7.86 | – | 0.584 | > 200000 | – | – |
| NS(=O)(=O)c1cc(NC(=O)Cc2ccccc2Cl)cc2nn(CC(F)F)cc12 [Compound 12-A, 2-(2-chlorophenyl)-N-(2-(2,2-difluoroethyl)-4-sulfamoyl-2H-indazol-6-yl)acetamide] | 7.51 | – | – | > 200000 | – | half-life ([4]; symbol NA): > 106 h |
| NS(=O)(=O)c1cc(NC(=O)Cc2ccccc2Cl)cc2c1cnn2CC1CCC1 [Compound 24-B, 2-(2-chlorophenyl)-N-(1-(cyclobutylmethyl)-4-sulfamoyl-1H-indazol-6-yl)acetamide] | – | 0.768 | 1.84 | > 200000 | ≥ 8.00 | half-life [1]: 2.41 h |
| CC(C)OCCn1cc2c(S(N)(=O)=O)cc(NC(=O)Cc3ccccc3Cl)cc2n1 [Compound 26-A, 2-(2-chlorophenyl)-N-(2-(2-isopropoxyethyl)-4-sulfamoyl-2H-indazol-6-yl)acetamide] | 8.21 | – | 2.09 | > 200000 | – | – |
| COc1ccc(Cn2cc3c(S(N)(=O)=O)cc(NC(=O)Cc4ccccc4Cl)cc3n2)cc1 [Compound 35-A, 2-(2-chlorophenyl)-N-(2-(4-methoxybenzyl)-4-sulfamoyl-2H-indazol-6-yl)acetamide] | – | – | 6.21 | > 200000 | 7.30 to 8.00 | – |
| COc1ccc(Cn2ncc3c(S(N)(=O)=O)cc(NC(=O)Cc4ccccc4Cl)cc32)cc1 [Compound 35-B, 2-(2-chlorophenyl)-N-(1-(4-methoxybenzyl)-4-sulfamoyl-1H-indazol-6-yl)acetamide] | – | – | 4.66 | > 200000 | 7.30 to 8.00 | – |
| NS(=O)(=O)c1cc(NC(=O)Cc2ccccc2Cl)cc2c1cnn2-c1ccc(F)cc1 [Compound 44, 2-(2-chlorophenyl)-N-(1-(4-fluorophenyl)-4-sulfamoyl-1H-indazol-6-yl)acetamide] | 7.43 | – | 5.08 | – | – | half-life [1]: 1.2 h; half-life ([3]; microsomes): 1.53 h |
| NS(=O)(=O)c1cc(NC(=O)Cc2ccccc2Cl)cc2cn(CC3CC3)nc12 [Compound 47, 2-(2-chlorophenyl)-N-(2-(cyclopropylmethyl)-7-sulfamoyl-2H-indazol-5-yl)acetamide] | 7.77 | – | 13.1 | > 200000 | – | – |
| NS(=O)(=O)c1cc(NC(=O)Cc2ccccc2Cl)cc2nc(-c3ccccc3)[nH]c12 [Compound 53, 2-(2-chlorophenyl)-N-(2-phenyl-7-sulfamoyl-1H-benzo[d]imidazol-5-yl)acetamide] | – | 0.753 | 3.79 | – | 5.30 to 6.70 | half-life [1]: 0.154 h |
| NS(=O)(=O)c1cc(NC(=O)Cc2ccccc2Cl)cc2nn(Cc3ccc(F)cc3)cc12 [Compound 88, 2-(2-chlorophenyl)-N-(2-(4-fluorobenzyl)-4-sulfamoyl-2H-indazol-6-yl)acetamide] | – | 2.07 | 8.54 | > 200000 | ≥ 8.00 | half-life [1]: 2 h |
| Nc1ccc(Cn2cc3c(S(N)(=O)=O)cc(NC(=O)Cc4ccccc4Cl)cc3n2)cn1 [Compound 101, N-(2-((6-aminopyridin-3-yl)methyl)-4-sulfamoyl-2H-indazol-6-yl)-2-(2-chlorophenyl)acetamide] | – | – | 1.86 | – | 7.30 to 8.00 | – |
| Nc1ccc(Cn2ncc3c(S(N)(=O)=O)cc(NC(=O)Cc4ccccc4Cl)cc32)cn1 [Compound 101A, N-(1-((6-aminopyridin-3-yl)methyl)-4-sulfamoyl-1H-indazol-6-yl)-2-(2-chlorophenyl)acetamide] | – | – | 1.19 | – | 7.30 to 8.00 | – |
| NS(=O)(=O)c1cc(NC(=O)Cc2ccccc2Cl)cc2nn(CC3CCOC3)cc12 (stereo not drawn) [Compound 110, 2-(2-chlorophenyl)-N-(4-sulfamoyl-2-((tetrahydrofuran-3-yl)methyl)-2H-indazol-6-yl)acetamide] | – | 1.15 | 7.18 | – | 6.70 to 7.30 | – |
| NS(=O)(=O)c1cc(NC(=O)Cc2ccccc2Cl)cc2c1cnn2CC1CCOC1 (stereo not drawn) [Compound 110A, 2-(2-chlorophenyl)-N-(4-sulfamoyl-1-((tetrahydrofuran-3-yl)methyl)-1H-indazol-6-yl)acetamide] | – | 0.335 | 0.882 | – | 5.30 to 6.70 | – |
| NS(=O)(=O)c1cc(NC(=O)Cc2ccccc2Cl)cc2nn(CC3CCCO3)cc12 (stereo not drawn) [Compound 120, 2-(2-chlorophenyl)-N-(4-sulfamoyl-2-((tetrahydrofuran-2-yl)methyl)-2H-indazol-6-yl)acetamide] | – | 0.226 | 1.06 | – | 6.70 to 7.30 | – |
| NS(=O)(=O)c1cc(NC(=O)Cc2ccccc2Cl)cc2c1cnn2CC1CCCO1 (stereo not drawn) [Compound 120A, 2-(2-chlorophenyl)-N-(4-sulfamoyl-1-((tetrahydrofuran-2-yl)methyl)-1H-indazol-6-yl)acetamide] | – | 0.137 | 0.371 | – | 6.70 to 7.30 | – |
| CCC(F)(F)n1cc2c(S(N)(=O)=O)cc(NC(=O)Cc3ccccc3Cl)cc2n1 [Compound 133, 2-(2-chlorophenyl)-N-(2-(1,1-difluoropropyl)-4-sulfamoyl-2H-indazol-6-yl)acetamide] | – | 2.26 | 25 | > 100000 | 7.30 to 8.00 | – |
| C=CC(F)(F)n1cc2c(S(N)(=O)=O)cc(NC(=O)Cc3ccccc3Cl)cc2n1 [Compound 134, 2-(2-chlorophenyl)-N-(2-(1,1-difluoroallyl)-4-sulfamoyl-2H-indazol-6-yl)acetamide] | – | 3.22 | 13.7 | – | 7.30 to 8.00 | – |
| NS(=O)(=O)c1cc(NC(=O)Cc2ccccc2Cl)cc2nn(CC3CCOCC3)cc12 [Compound 141, 2-(2-chlorophenyl)-N-(4-sulfamoyl-2-((tetrahydro-2H-pyran-4-yl)methyl)-2H-indazol-6-yl)acetamide] | – | 0.226 | 1.07 | – | 6.70 to 7.30 | – |
| COc1ccc2c(c1)[C@]13CCCC[C@@H]1[C@H](C2)N(C)CC3 [Dextromethorphan, dextromethorphan, reference compound] | – | – | – | – | – | Cough inhibition rate Vs vehicle (%) ([6]; 60 mg/kg): 33.95%; Cough latency [6, 7]: 73.43 s; Mean number of coughs [6, 7]: 18.57; Cough latency ([6]; 60 mg/kg, after administration): 154.29 s; Mean number of coughs ([6]; 60 mg/kg, after administration): 12.71; Cough inhibition rate Vs baseline (%) ([6]; 60 mg/kg, before vs after administration): 31.54% |
